Data from US20060263802A1 (priority 2003, published 2006).

Legend:
Type in all cases: binding
[1] = test system: human monoclonal antibody CR57
[2] = test system: human monoclonal antibody CRJB
[3] = test system: human monoclonal antibody CR57; remark: listed apart in the source
[4] = test system: human monoclonal antibody CRJA
[5] = test system: human monoclonal antibody CRJB; remark: listed apart in the source
[6] = test system: human monoclonal antibody CR57; remark: listed apart in the source
[7] = test system: human monoclonal antibody CRJA; remark: listed apart in the source

In the case of ACKLKLCGVL, the “binding of CR57 to 12-, 10- and 8-mer peptides” value (from here on “binding … 10- and 8-mer peptides”) [1] is reported as “bound”.

In the case of LKLCGVLG, the “binding … 10- and 8-mer peptides” value [1] is reported as “bound”.

For KLCGVLGL, the “binding … 10- and 8-mer peptides” value [1] was “bound”.

With ACKLKLCGVLGL the “binding … 10- and 8-mer peptides” value [1] was “bound”.

KGACKLKLCGVL was tested, and the “binding … 10- and 8-mer peptides” value [1] was “bound”.

For KLKLCGVL, the “binding … 10- and 8-mer peptides” value [1] was “bound”.

With LKLCGVLGLR the “binding … 10- and 8-mer peptides” value [1] was “bound”.

With KLKLCGVLGL the “binding … 10- and 8-mer peptides” value [1] was “bound”.

For KLCGVLGLRLMD, the “binding … 10- and 8-mer peptides” value [1] was “bound”.

For GACKLKLCGVLG, the “binding … 10- and 8-mer peptides” value [1] was “bound”.

In the case of RPTPDACRAAYNWKM, the “Binding of CRJB to linear peptide (PEPSCAN-ELISA signal)” value (from here on “Binding of CRJB to linear peptide”) [2] is reported as 101, the “Binding of CR57 to linear peptide (PEPSCAN-ELISA signal)” value (“Binding of CR57 to linear peptide” below) [3] is reported as 77 and the “Binding of CRJA to linear peptide (PEPSCAN-ELISA signal)” value (shortened to “Binding of CRJA to linear peptide”) [4] is reported as 123. For the same sequence, the “Binding of CRJB (10 μg/ml) to looped/cyclic peptide (PEPSCAN-ELISA signal)” value [5] was 51, the “Binding of CR57 (10 μg/ml) to looped/cyclic peptide (PEPSCAN-ELISA signal)” value [6] was 76 and the “Binding of CRJA (10 μg/ml) to looped/cyclic peptide (PEPSCAN-ELISA signal)” value [7] was 96.

KGSETCGFVDERGLY was tested, and the “Binding of CRJB to linear peptide” value [2] was 97, the “Binding of CR57 to linear peptide” value [3] was 90 and the “Binding of CRJA to linear peptide” value [4] was 100. The “Binding of CRJB (10 μg/ml) to looped/cyclic peptide (PEPSCAN-ELISA)” value [5] was 72, the “Binding of CR57 (10 μg/ml) to looped/cyclic peptide (PEPSCAN-ELISA)” value [6] was 111 and the “Binding of CRJA (10 μg/ml) to looped/cyclic peptide (PEPSCAN-ELISA)” value [7] was 71.

In the case of CKLKLCGVLG, the “binding … 10- and 8-mer peptides” value [1] is reported as “bound”.

In the case of LHDFRSDEIEHLVVE, the “Binding of CRJB to linear peptide” value [2] is reported as 115, the “Binding of CR57 to linear peptide” value [3] is reported as 93 and the “Binding of CRJA to linear peptide” value [4] is reported as 110. For the same sequence, the “Binding of CRJB (10 μg/ml) to looped/cyclic peptide (PEPSCAN-ELISA)” value [5] was 65, the “Binding of CR57 (10 μg/ml) to looped/cyclic peptide (PEPSCAN-ELISA)” value [6] was 40 and the “Binding of CRJA (10 μg/ml) to looped/cyclic peptide (PEPSCAN-ELISA)” value [7] was 90.

CKLKLCGVLGLR was tested, and the “binding … 10- and 8-mer peptides” value [1] was “bound”.

With LMDGTWVAMQTSNET the “Binding of CRJB to linear peptide” value [2] was 106, the “Binding of CR57 to linear peptide” value [3] was 96 and the “Binding of CRJA to linear peptide” value [4] was 102. For the same sequence, the “Binding of CRJB (10 μg/ml) to looped/cyclic peptide (PEPSCAN-ELISA)” value [5] was 76, the “Binding of CR57 (10 μg/ml) to looped/cyclic peptide (PEPSCAN-ELISA)” value [6] was 106 and the “Binding of CRJA (10 μg/ml) to looped/cyclic peptide (PEPSCAN-ELISA)” value [7] was 92.

In the case of RVGGRCHPHVNGVFF, the “Binding of CRJB to linear peptide” value [2] is reported as 143, the “Binding of CR57 to linear peptide” value [3] is reported as 86 and the “Binding of CRJA to linear peptide” value [4] is reported as 93. The “Binding of CRJB (10 μg/ml) to looped/cyclic peptide (PEPSCAN-ELISA)” value [5] was 104, the “Binding of CR57 (10 μg/ml) to looped/cyclic peptide (PEPSCAN-ELISA)” value [6] was 107 and the “Binding of CRJA (10 μg/ml) to looped/cyclic peptide (PEPSCAN-ELISA)” value [7] was 117.

For CGFVDERGLYKSLKG, the “Binding of CRJB to linear peptide” value [2] was 115, the “Binding of CR57 to linear peptide” value [3] was 72 and the “Binding of CRJA to linear peptide” value [4] was 94. The “Binding of CRJB (10 μg/ml) to looped/cyclic peptide (PEPSCAN-ELISA)” value [5] was 76, the “Binding of CR57 (10 μg/ml) to looped/cyclic peptide (PEPSCAN-ELISA)” value [6] was 85 and the “Binding of CRJA (10 μg/ml) to looped/cyclic peptide (PEPSCAN-ELISA)” value [7] was 90.

For PPDQLVNLHDFRSDE, the “Binding of CRJB to linear peptide” value [2] was 120, the “Binding of CR57 to linear peptide” value [3] was 107 and the “Binding of CRJA to linear peptide” value [4] was 118. For the same sequence, the “Binding of CRJB (10 μg/ml) to looped/cyclic peptide (PEPSCAN-ELISA)” value [5] was 83, the “Binding of CR57 (10 μg/ml) to looped/cyclic peptide (PEPSCAN-ELISA)” value [6] was 101 and the “Binding of CRJA (10 μg/ml) to looped/cyclic peptide (PEPSCAN-ELISA)” value [7] was 97.
